Target: T1, APOL1 (Homo sapiens, UniProt O14791)
T1 sequence (O14791 1-398 S342G/I384M): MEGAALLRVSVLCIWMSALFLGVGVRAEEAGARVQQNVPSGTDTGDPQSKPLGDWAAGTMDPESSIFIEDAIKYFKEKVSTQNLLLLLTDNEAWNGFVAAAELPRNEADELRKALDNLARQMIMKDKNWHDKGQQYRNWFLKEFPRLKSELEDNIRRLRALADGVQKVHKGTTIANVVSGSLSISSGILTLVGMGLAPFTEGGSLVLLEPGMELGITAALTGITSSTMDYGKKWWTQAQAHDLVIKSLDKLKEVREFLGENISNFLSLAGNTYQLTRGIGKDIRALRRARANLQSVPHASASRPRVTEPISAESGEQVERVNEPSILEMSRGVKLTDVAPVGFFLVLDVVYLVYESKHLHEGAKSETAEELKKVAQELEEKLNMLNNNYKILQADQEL
Assay: MultiTox-Fluor Multiplex Cytotoxicity Assay in tet-inducible APOL1 T-REx-HEK293 cells (cell rescue, ratio of dead to live cells)
Format: cell-based
Conditions: tet-inducible transgenic APOL1 T-REx-HEK293 cell lines, 50 ng/mL tet, 24 hours; read-out: IP50 (i.e., IC50 for cell proliferation)
In short: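 T-REx-HEK293 cells with tet-inducible APOL1 were treated with compound (10 μM top, 10-point 3-fold dilution, duplicate) plus 50 ng/mL tetracycline for 24 h at 37° C, in DMEM with 2% tet-free FBS. MultiTox-Fluor protease signals gave a dead/live ratio, normalized to no tet (100% viability) and tet alone (0%).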

`CCc1cc2c(s1)CCOC21CCN(Cc2cn(CCS(C)(=O)=O)nn2)CC1` [Compound 1085] and `CCc1cc2c(s1)CCOC21CCN(Cc2cn(CC(C)S(C)(=O)=O)nn2)CC1` (centres unmarked) [Compound 1088] fall in the same range of IC50: 500 to 1000 nM for the first, 500 to 1000 nM for the second.

`COCCOCC(O)Cn1cc(CN2CC[C@]3(C[C@@H]2C)OCCc2c3sc(C(F)(F)F)c2CO)cn1` (some centres unmarked) [Compound 966] and `CC(C)C(O)Cn1cc(CN2CC[C@]3(C[C@@H]2C)OCCc2c3sc(C(F)(F)F)c2CO)cn1` (stereo partly drawn) [Compound 891, 1-[4-[[(2′S, 7R)-3-(hydroxymethyl)-2′-methyl-2-(trifluoromethyl)spiro[4,5-dihydrothieno[2,3-c]pyran-7,4′-piperidine]-1′-yl]methyl]pyrazol-1-yl]-3-methyl-butan-2-ol] cannot be ordered by IC50: < 100 nM for the first, < 100 nM for the second.

`Cc1nc(CN2CC[C@]3(C[C@@H]2C)OCCc2cc(CC(F)F)sc23)c(C)o1` [Compound 618] and `Cc1c[nH]c(=O)c(CN2CC[C@]3(C[C@@H]2C)OCCc2cc(CC(F)F)sc23)c1` [Compound 590] fall in the same range of IC50: 500 to 1000 nM for the first, 500 to 1000 nM for the second.

`C[C@H]1C[C@@]2(CCN1Cc1cnn(CC(O)C3(O)CCC3)c1)OCCc1c2sc(C(F)(F)F)c1CO` (some centres unmarked) [Compound 940] and `C[C@H]1C[C@@]2(CCN1Cc1cnn(CC(O)C(F)(F)F)c1)OCCc1c2sc(C(F)(F)F)c1CO` (some centres unmarked) [Compound 894] cannot be ordered by IC50: < 100 nM for the first, < 100 nM for the second.

First: C[C@H]1C[C@@]2(CCN1Cc1ccc(NS(C)(=O)=O)cc1)OCCc1cc(Cl)sc12 [Compound 638]
Second: C[C@H]1C[C@@]2(CCN1Cc1ccc(S(C)(=O)=O)cc1)OCCc1cc(Cl)sc12 [Compound 654]
The IC50 of the first is lower: < 100 nM for the first, 100 to 500 nM for the second. The first is the more potent here.

`CC1COC2(CCN(Cc3cn(CCS(C)(=O)=O)nn3)[C@@H](C)C2)c2cc(Cl)sc21` (some centres unmarked) [Compound 540] and `CC(=O)NC1CO[C@@]2(CCN(Cc3cnn(CCS(C)(=O)=O)c3)[C@@H](C)C2)c2sc(Cl)cc21` (stereo partly drawn) [Compound 855, N-[(2′S, 7R)-2-chloro-2′-methyl-1′-[[1-(2-methylsulfonylethyl)pyrazol-4-yl]methyl]spiro[4,5-dihydrothieno[2,3-c]pyran-7,4′-piperidine]-4-yl]acetamide] cannot be ordered by IC50: < 100 nM for the first, < 100 nM for the second.

Compared with `C[C@H]1C[C@@]2(CCN1Cc1ccnn1C)OCCc1cc(Cl)sc12` [Compound 681], `C[C@H]1C[C@@]2(CCN1C[C@H](O)C(N)=O)OCCc1cc(Cl)sc12` [Compound 708, (2S)-3-[(2′S, 7R)-2-chloro-2′-methyl-spiro[4,5-dihydrothieno[2,3-c]pyran-7,4′-piperidine]-1′-yl]-2-hydroxy-propanamide] is lower in IC50: 500 to 1000 nM for the first, 100 to 500 nM for the second. The second is the more potent here.

`C[C@H]1C[C@@]2(CCN1Cc1cn(CC(O)C(C)(C)O)nn1)OCCc1c2sc(C(F)(F)F)c1CO` (some centres unmarked) [Compound 1005] and `CNC(=O)Cn1cc(CN2CC[C@]3(C[C@@H]2C)OCCc2c3sc(C(F)(F)F)c2CO)cn1` [Compound 901] cannot be ordered by IC50: < 100 nM for the first, < 100 nM for the second.

First: CCc1cc2c(s1)CCOC21CCN(Cc2ccc(NCc3cc[nH]c(=O)c3)cc2)CC1 [Compound 1162]
Second: CCc1cc2c(s1)CCOC21CCN(Cc2cc3nc(OC)ccc3[nH]2)CC1 [Compound 1126, 2′-ethyl-1-((5-methoxy-1H-pyrrolo[3,2-b]pyridin-2-yl)methyl)-6′,7′-dihydrospiro[piperidine-4,4′-thieno[3,2-c]pyran]]
The IC50 of the first is higher: 100 to 500 nM for the first, < 100 nM for the second.

`C[C@H]1C[C@@]2(CCN1Cc1ccc(F)cn1)OCCc1c2sc(Cl)c1CO` [Compound 726] and `C[C@H]1C[C@@]2(CCN1Cc1cnccn1)OCCc1c2sc(Cl)c1CO` [Compound 737] fall in the same range of IC50: 500 to 1000 nM for the first, 500 to 1000 nM for the second.

`CCc1cc2c(s1)CCOC21CCN(Cc2cn(CCC(=O)NCCO)nn2)CC1` [Compound 1111] and `CCc1cc2c(s1)CCOC21CCN(Cc2cn(CC(=O)NCCC(F)(F)F)nn2)CC1` [Compound 1096] fall in the same range of IC50: 500 to 1000 nM for the first, 500 to 1000 nM for the second.

First: CCc1cc2c(s1)CCO[C@]21CCN(Cc2cnn(CCS(C)(=O)=O)c2)[C@H](C)C1 [Compound 273]
Second: [2H]C(OCC)c1cc2c(s1)[C@]1(CCN(Cc3cnn(CCS(C)(=O)=O)c3)[C@@H](C)C1)OCC2 (stereo partly drawn) [Compound 1015, (2′S, 7R)-2-[deuterio(ethoxy)methyl]-2′-methyl-1′-[[1-(2-methylsulfonylethyl)pyrazol-4-yl]methyl]spiro[4,5-dihydrothieno[2,3-c]pyran-7,4′-piperidine]]
The IC50 of the first is higher: 100 to 500 nM for the first, < 100 nM for the second. The second is the more potent here.

`C[C@H]1C[C@@]2(CCN1Cc1cnn(C[C@@H](O)C(N)=O)c1)OC[C@@H](O)c1cc(C(F)(F)F)sc12` [Compound 992, (2R)-2-hydroxy-3-[4-[[(2′S,4S,7R)-4-hydroxy-2′-methyl-2-(trifluoromethyl)spiro[4,5-dihydrothieno[2,3-c]pyran-7,4′-piperidine]-1′-yl]methyl]pyrazol-1-yl]propanamide] and `C[C@H]1C[C@@]2(CCN1Cc1cnn(CCCC(N)=O)c1)OCCc1c2sc(C(F)(F)F)c1CO` [Compound 898] cannot be ordered by IC50: < 100 nM for the first, < 100 nM for the second.

`CCc1cc2c(s1)CCO[C@@]21CCN(C[C@H]2C[C@@H](NC(=O)CNS(C)(=O)=O)C2)[C@@H](C)C1` [Compound 364] and `CCc1cc2c(s1)CCO[C@@]21CCN(C[C@H]2C[C@@H](NC(=O)CC#N)C2)[C@@H](C)C1` [Compound 334] fall in the same range of IC50: 100 to 500 nM for the first, 100 to 500 nM for the second.

`CCc1cc2c(s1)CCO[C@@]21CCN(Cc2cn(Cc3nccn3C)nn2)[C@@H](C)C1` [Compound 56] and `CCc1cc2c(s1)CCO[C@@]21CCN(Cc2cn(CC3(O)COC3)nn2)[C@@H](C)C1` [Compound 146] cannot be ordered by IC50: < 100 nM for the first, < 100 nM for the second.

First: CCc1cc2c(s1)CCO[C@@]21CCN(Cc2cnc(NC34CCC(CO)(C3)C4)nc2)[C@@H](C)C1 [Compound 210]
Second: CCc1cc2c(s1)CCO[C@@]21CCN(Cc2cn(C3(CO)CC3)nn2)[C@@H](C)C1 [Compound 127]
The IC50 of the first is lower: < 100 nM for the first, 500 to 1000 nM for the second.

First: CCc1cc2c(s1)CCOC21CCN(Cc2ccc(C(=O)NCCC(=O)N3CCCC3)nc2)CC1 [Compound 1049]
Second: CCc1cc2c(s1)CCOC21CCN(Cc2cnc(C(C)O)s2)CC1 (centres unmarked) [Compound 1143]
The IC50 of the first is lower: < 100 nM for the first, 500 to 1000 nM for the second.

First: CCc1cc2c(s1)CCO[C@@]21CCN(Cc2cn(C3CN(S(C)(=O)=O)C3)nn2)[C@@H](C)C1 [Compound 162]
Second: CCc1cc2c(s1)CCO[C@@]21CCN(Cc2cn(C(CO)[C@H](C)O)nn2)[C@@H](C)C1 (some centres unmarked) [Compound 193]
The IC50 of the first is lower: < 100 nM for the first, 500 to 1000 nM for the second.

`C[C@H]1C[C@@]2(CCN1Cc1ccc(N(CCO)CCO)cc1)OCCc1cc(Cl)sc12` [Compound 636] and `C[C@H]1C[C@@]2(CCN1Cc1ccc(OCCO)cc1)OCCc1c2sc(Cl)c1CO` [Compound 715] cannot be ordered by IC50: < 100 nM for the first, < 100 nM for the second.

First: COc1cc(CN2CC[C@]3(C[C@@H]2C)OCCc2c3sc(Cl)c2CO)ccc1OCC(N)=O [Compound 742]
Second: CNC(=O)c1cccc(CN2CC[C@]3(C[C@@H]2C)OCCc2c3sc(Cl)c2CO)c1 [Compound 730]
The IC50 of the first is lower: < 100 nM for the first, 100 to 500 nM for the second.

Compared with `Cn1cc(CN2CCC3(CC2)OCC2(CC2)c2sc(Cl)cc23)cn1` [Compound 1179, 2′-chloro-1″-[(1-methyl-1H-pyrazol-4-yl)methyl]-6′H-dispiro[cyclopropane-1,7′-thieno[3,2-c]pyran-4′,4″-piperidine]], `CCc1cc2c(s1)CCOC21CCN(Cc2cnn(C)c2)C2(CCC2)C1` (centres unmarked) [Compound 1042, 2″-ethyl-1′-((1-methyl-1H-pyrazol-4-yl)methyl)-6″,7″-dihydrodispiro[cyclobutane-1,2′-piperidine-4′,4″-thieno[3,2-c]pyran]] is higher in IC50: < 100 nM for the first, 100 to 500 nM for the second.

`CCc1cc2c(s1)CCO[C@@]21CCN(CC2CN(C(=O)CS(=O)(=O)CC)C2)[C@@H](C)C1` [Compound 459] and `CCc1cc2c(s1)CCO[C@@]21CCN(CC2CN(C(=O)CN3CCS(=O)(=O)CC3)C2)[C@@H](C)C1` [Compound 445] cannot be ordered by IC50: < 100 nM for the first, < 100 nM for the second.

Compared with `CCc1cc2c(s1)CCO[C@@]21CCN(Cc2cn(CC(CO)CC3CCOCC3)nn2)[C@@H](C)C1` (some centres unmarked) [Compound 121], `CCc1cc2c(s1)CCO[C@@]21CCN(Cc2cn(CC3(OCCO)CCC3)nn2)[C@@H](C)C1` [Compound 104] is higher in IC50: < 100 nM for the first, 100 to 500 nM for the second. The first is the more potent here.

`C[C@H]1C[C@@]2(CCN1Cc1cnn(CC(=O)NCC(F)F)c1)OCCc1c2sc(C(F)(F)F)c1CO` [Compound 913] and `CCc1cc2c(s1)CCO[C@@]21CCN(CC2CN(C(=O)c3cc(C(F)(F)F)n[nH]3)C2)[C@@H](C)C1` [Compound 462] cannot be ordered by IC50: < 100 nM for the first, < 100 nM for the second.

`CCc1cc2c(s1)CCO[C@@]21CCN(Cc2ccc(N[C@@H](C)C(C)(C)O)nc2)[C@@H](C)C1` [Compound 211] and `CCc1cc2c(s1)CCO[C@@]21CCN(Cc2cn(-c3cncc(F)c3)nn2)[C@@H](C)C1` [Compound 71] cannot be ordered by IC50: < 100 nM for the first, < 100 nM for the second.

`CCc1cc2c(s1)CCO[C@@]21CCN(C[C@H]2C[C@@H](NC(=O)c3oncc3C)C2)[C@@H](C)C1` [Compound 308] and `CCc1cc2c(s1)CCO[C@@]21CCN(C[C@H]2C[C@@H](NC(=O)C(O)C(C)C)C2)[C@@H](C)C1` (some centres unmarked) [Compound 319] cannot be ordered by IC50: < 100 nM for the first, < 100 nM for the second.

First: CCc1cc2c(s1)CCO[C@@]21CCN(CC2(O)CCOCC2)[C@@H](C)C1 [Compound 235]
Second: CCc1cc2c(s1)CCO[C@@]21CCN(CC2CN(C(=O)c3nonc3C)C2)[C@@H](C)C1 [Compound 426]
The IC50 of the first is higher: 100 to 500 nM for the first, < 100 nM for the second.

Compared with `CCc1cc2c(s1)CCO[C@@]21CCN(CC2CN(S(=O)(=O)c3c[nH]cn3)C2)[C@@H](C)C1` [Compound 496], `CC(=O)Nc1ccc(CN2CC[C@]3(C[C@@H]2C)OC[C@H](O)c2cc(Cl)sc23)cc1` [Compound 799] is lower in IC50: 500 to 1000 nM for the first, < 100 nM for the second. The second is the more potent here.

Reference: US20250171459A1, “2-METHYL-4',5'-DIHYDROSPIRO[PIPERIDINE-4,7'-THIENO[2,3-C]PYRAN] DERIVATIVES AS INHIBITORS OF APOL1 AND METHODS OF USING SAME” (Vertex Pharmaceuticals Incorporated, priority 2022, published 2025)
